O=C(N[C@H](Cc1ccccc1)C(=O)O)OCC1c2ccccc2-c2ccccc21
solubility (mole fraction)
Settings | 283.15 K | 288.15 K | 293.15 K | 298.15 K | 303.15 K | 308.15 K | 313.15 K | 318.15 K | 323.15 K
in methanol | 0.00189 | 0.00192 | 0.00199 | 0.00212 | 0.00243 | 0.00285 | 0.00331 | 0.0039 | 0.00513
in methyl acetate | 0.00327 | 0.00358 | 0.00408 | 0.00458 | 0.00537 | 0.00623 | 0.0072 | 0.00884 | 0.0105
in n-butanol | 0.00121 | 0.00136 | 0.00156 | 0.00181 | 0.0022 | 0.00261 | 0.00322 | 0.00389 | 0.00511
in n-butyl acetate | 0.00209 | 0.00227 | 0.00243 | 0.00278 | 0.00305 | 0.00352 | 0.00409 | 0.0046 | 0.00536
in n-propanol | 0.00161 | 0.00168 | 0.00178 | 0.0019 | 0.00217 | 0.00252 | 0.00316 | 0.00365 | 0.00456
in n-propyl acetate | 0.0023 | 0.00244 | 0.00275 | 0.00318 | 0.00354 | 0.00405 | 0.00467 | 0.00534 | 0.00613

Source: BigSolDB 2.1
